Measured values from patent publication US20260002166A1, “GENETIC ENGINEERING OF MARINE BACTERIA FOR BIOMATERIAL PRODUCTION, PROBIOTIC USE IN AQUACULTURE AND MARINE ENVIRONMENTAL RESTORATION” (San Diego State University (SDSU) Foundation, dba San Diego …, priority 2022, published 2026).
In brackets after ≈: the same amount, converted by molar mass.

Legend:
[1] = tested on: two other types of invertebrate larvae; conditions: two other types of invertebrate larvae [29]; cited from earlier work
[2] = tested on: phytoplankton; conditions: [31]; cited from earlier work
[3] = tested on: sea urchin; conditions: [32]; cited from earlier work
[4] = tested on: Pacific and Atlantic corals; conditions: synthesized TBP; cited from earlier work
[5] = tested on: Leisingera sp. 204H (NJS204, Wild type); assay: Minimum inhibitory concentration of kanamycin; assay type: cell-based
Method: (§1) • 1. Streak out marine microbes onto Marine Agar plates and incubate overnight at 25° C.-28° C. Some strains take longer to grow to single colonies. Incubation times longer than 24 hours may be required for some slower growing strains. Monitor growth in future steps accordingly.
(§2) • 2. Inoculate a single colony into 5 mL Marine Broth (2216) media in the late afternoon/early evening. Incubate overnight at 25 C, shaking at 200 rpm.
(§3) • 3. Measure optical density (OD600) of overnight culture growth and document. • 4. Pipette 100 μL of overnight culture from each strain onto Marine Agar plates containing either Strep (for background resistance), Kan (MIC), Gent (MIC) at each concentration (25 μg/mL, 50 μg/mL, 100 μg/mL and 200 μg/mL). • 5. Use beads or plate spreader to spread the culture evenly on the plate. Remove the beads and incubate overnight at 25° C. overnight.
(§4) • 6. Observe and document growth on all concentration plates. For the MICs (Kan/Gent) identify the lowest concentration of media in which no colonies are observed. If there are no colonies at any concentration, screen lower concentrations of Kanamycin/Gentamicin in the media (i.e. 5, 10, 15, 20 μg/mL). • 7. For the Streptomycin Resistant strain, select a single colony from the highest dose of Streptomycin that has growth and streak it out onto a plate containing the same concentration and a plate containing the next highest concentration of antibiotics. Incubate overnight at 25 C.
(§5) • 8. Observe and document growth on both the MIC plates (2 days old) and the Streptomycin resistance plates. If Streptomycin resistance is sustained at less than 200 μg/mL, then continue step 7, passaging the strains onto higher concentrations of antibiotics. Once robust growth occurs at 200 μg/mL, inoculate a single colony into 5 mL Marine Broth containing Strep 200 μg/mL and incubate 25° C. overnight, shaking at 200 rpm.

[6] = tested on: Nereida sp. MMG025 (NJS678); assay: Minimum inhibitory concentration of kanamycin; assay type: cell-based; conditions: Nereida sp. MMG025, Wild type
Method: as §1, §2, §3, §4, §5

[7] = tested on: Vibrio harveyi (NJS675, StrR); assay: Minimum inhibitory concentration of kanamycin; assay type: cell-based; conditions: read-out: MIC Kan
Method: as §1, §2, §3, §4, §5

[8] = tested on: Endozoicomonas montiporae CL-33 (NJS662); assay: Minimum inhibitory concentration of kanamycin; assay type: cell-based; conditions: Endozoicomonas montiporae CL-33, Wild type
Method: as §1, §2, §3, §4, §5

[9] = tested on: Phaeobacter gallaeciensis ATCC 700781 (DSM 26640) (NJS408, Wild type); assay: Minimum inhibitory concentration of kanamycin; assay type: cell-based; conditions: Phaeobacter gallaeciensis ATCC 700781, Wild type
Method: as §1, §2, §3, §4, §5

[10] = tested on: Ruegeria pomeroyi DSS-3 (NJS409); assay: Minimum inhibitory concentration of kanamycin; assay type: cell-based; conditions: Ruegeria pomeroyi DSS-3, Wild type
Method: as §1, §2, §3, §4, §5

[11] = tested on: Pseudoalteromonas sp. PS5 (NJS597, StrR); assay: Minimum inhibitory concentration of kanamycin; assay type: cell-based; conditions: read-out: MIC Kan
Method: as §1, §2, §3, §4, §5

[12] = tested on: Cobetia sp. MMG (NJS775); assay: Minimum inhibitory concentration of kanamycin; assay type: cell-based; conditions: Wild type
Method: as §1, §2, §3, §4, §5

[13] = tested on: Shimia sp. MMG (NJS302); assay: Minimum inhibitory concentration of kanamycin; assay type: cell-based; conditions: Wild type
Method: as §1, §2, §3, §4, §5

[14] = tested on: Phaeobacter sp. HS012 (NJS491); assay: Minimum inhibitory concentration of kanamycin; assay type: cell-based; conditions: Phaeobacter sp. HS012, Wild type
Method: as §1, §2, §3, §4, §5

[15] = tested on: Photobacterium mandapamensis svers.3.2 (MT002); assay: Minimum inhibitory concentration of kanamycin; assay type: cell-based; conditions: Photobacterium leiognathi, Photobacterium mandapamensis svers.3.2, Wild type
Method: as §1, §2, §3, §4, §5

[16] = tested on: Pseudoalteromonas luteoviolacea HI1 (NJS005, StrR); assay: Minimum inhibitory concentration of kanamycin; assay type: cell-based; conditions: read-out: MIC Kan
Method: as §1, §2, §3, §4, §5

| SMILES | Metamorphosis in other invertebrate larvae [1] | Phytoplankton mortality [2] | Sea urchin development [3] | Induction of coral metamorphosis [4] | MIC [5] [µg/mL] | MIC [6] [µg/mL] | MIC [7] [µg/mL] | MIC [8] [µg/mL] | MIC [9] [µg/mL] | MIC [10] [µg/mL] | MIC [11] [µg/mL] | MIC [12] [µg/mL] | MIC [13] [µg/mL] | MIC [14] [µg/mL] | MIC [15] [µg/mL] | MIC [16] [µg/mL] |
| --- | --- | --- | --- | --- | --- | --- | --- | --- | --- | --- | --- | --- | --- | --- | --- | --- |
| Brc1[nH]c(Br)c(Br)c1Br [TBP, tetrabromopyrrole] | not eliciting robust metamorphosis | elicits phytoplankton mortality | halts sea urchin development | induce robust metamorphosis |  |  |  |  |  |  |  |  |  |  |  |  |
| NC[C@H]1O[C@H](O[C@H]2[C@H](O)[C@@H](O[C@H]3O[C@H](CO)[C@@H](O)[C@H](N)[C@H]3O)[C@H](N)C[C@@H]2N)[C@H](O)[C@@H](O)[C@@H]1O [Kan, kanamycin] |  |  |  |  | 200 (≈ 413 µM) | 200 (≈ 413 µM) | 200 (≈ 413 µM) | 100 (≈ 206 µM) | 300 (≈ 619 µM) | 300 (≈ 619 µM) | 200 (≈ 413 µM) | 200 (≈ 413 µM) | 300 (≈ 619 µM) | 300 (≈ 619 µM) | 400 (≈ 826 µM) | 200 (≈ 413 µM) |
